Our source for the TGI values is PubChem BioAssay (NCI).

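Exposure lasted 48 hours, with cells grown in 96-well plates and compounds tested at five concentrations. TGI: total growth inhibition.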

Test systems include OVCAR-5 ovarian; CAKI-1 renal; SNB-19 CNS; MALME-3M melanoma; NCI-H226 lung; EKVX NSCLC; HOP-62 NSCLC; DU-145 prostate; LOX IMVI melanoma.
What all share (experiment): growth of human tumour cells (NCI), 48 h

For `CN1CCN(C2=NCCO2)CC1`, the TGI in the assay on OVCAR-5 ovarian, with CAKI-1 renal, in the assay on SNB-19 CNS, in the assay with MALME-3M melanoma, in the assay with NCI-H226 lung and in the assay with EKVX NSCLC was above 100 µM throughout. Moreover, the TGI with HOP-62 NSCLC, in the assay on DU-145 prostate and with LOX IMVI melanoma was above 100 µM throughout.
Regarding `O=C(CC(=O)c1cccc2ccccc12)C(=O)Nc1ccc(Cl)cc1`, the TGI in the assay with OVCAR-5 ovarian, with CAKI-1 renal, with SNB-19 CNS, in the assay on MALME-3M melanoma, in the assay with NCI-H226 lung and in the assay on EKVX NSCLC was above 100 µM each time. The TGI in the assay on HOP-62 NSCLC and in the assay with LOX IMVI melanoma was above 100 µM each time.
Take `CN(C)N=Nc1ccc(C(N)=O)cc1`: the TGI in the assay with OVCAR-5 ovarian, in the assay with CAKI-1 renal, with SNB-19 CNS, with MALME-3M melanoma, with NCI-H226 lung and in the assay on EKVX NSCLC was above 100 µM in each case. The TGI in the assay on HOP-62 NSCLC and in the assay with LOX IMVI melanoma was above 100 µM each time.
For `COc1ccccc1N1C(=O)C2c3[nH]c4ccccc4c3C3CCC(C(C)(C)C)CC3C2C1=O` (centres undefined), the TGI in the assay with SNB-19 CNS, in the assay on MALME-3M melanoma, in the assay with NCI-H226 lung, in the assay with EKVX NSCLC and with HOP-62 NSCLC was above 100 µM throughout.
Consider `CNS(=O)(=O)NNS(=O)(=O)c1ccccc1`, for which the TGI in the assay on OVCAR-5 ovarian, with CAKI-1 renal, in the assay with SNB-19 CNS, in the assay with MALME-3M melanoma, with NCI-H226 lung and in the assay on EKVX NSCLC was above 100 µM each time. Besides, the TGI in the assay on HOP-62 NSCLC and in the assay on LOX IMVI melanoma was above 100 µM throughout.
For the compound `COC(=O)/C(C#N)=C1\NC(=O)c2ccccc21`, the TGI in the assay on OVCAR-5 ovarian, in the assay on SNB-19 CNS, in the assay with MALME-3M melanoma, in the assay on NCI-H226 lung, in the assay on EKVX NSCLC and with HOP-62 NSCLC was above 100 µM throughout. Also, the TGI in the assay on LOX IMVI melanoma was above 100 µM.
Regarding `COc1cc2ccnc([C@@H](OC(=O)c3ccccc3)c3ccc(OC)c(OC)c3OC)c2cc1OC`, the TGI with OVCAR-5 ovarian is above 100 µM; with CAKI-1 renal, above 100 µM; with SNB-19 CNS it was above 100 µM; with MALME-3M melanoma, 99.8 µM; with NCI-H226 lung, above 100 µM; with EKVX NSCLC, above 100 µM. For the same compound, the TGI in the assay with LOX IMVI melanoma was above 100 µM.
On to `CCn1c(C)nn2c(=O)c3ccccc3nc2c1=O`, for which the TGI in the assay on OVCAR-5 ovarian, in the assay with CAKI-1 renal, in the assay on MALME-3M melanoma, in the assay on EKVX NSCLC, in the assay on HOP-62 NSCLC and with LOX IMVI melanoma was above 100 µM each time.
For `CCN(CC)CCSc1c2ccccc2nc2cc(NCC(=O)Nc3ccccc3-c3ccccc3NC(=O)CNc3ccc4c(SCCN(CC)CC)c5ccccc5nc4c3)ccc12`, the TGI in the assay with OVCAR-5 ovarian, in the assay on CAKI-1 renal, in the assay with SNB-19 CNS, with MALME-3M melanoma, with NCI-H226 lung and in the assay on EKVX NSCLC was above 100 µM each time. The TGI with HOP-62 NSCLC and in the assay on LOX IMVI melanoma was above 100 µM each time.
Regarding `COC(=O)C1(C(C)C)CCc2c(OC)ccc(OC)c2C1=O` (centres undefined), the TGI with OVCAR-5 ovarian, in the assay on CAKI-1 renal, with SNB-19 CNS, with MALME-3M melanoma, with EKVX NSCLC and in the assay with HOP-62 NSCLC was above 100 µM each time. The compound also came in with a TGI with LOX IMVI melanoma above 100 µM.
On to `CCOC(=O)C(C)(C)Oc1ccc2c(-c3ccccc3)cc(=O)oc2c1`, for which the TGI is above 100 µM in the assay on SNB-19 CNS; 73.6 µM in the assay on MALME-3M melanoma; 87.4 µM in the assay on NCI-H226 lung; above 100 µM in the assay with EKVX NSCLC; 63.7 µM in the assay with HOP-62 NSCLC; 49.4 µM in the assay with LOX IMVI melanoma.
Consider `COC(=O)c1ccccc1NC(=O)C(=O)Cc1nc2c3c(ccc2[nH]c1=O)C(=O)c1ccccc1C3=O`, for which the TGI with OVCAR-5 ovarian is above 100 µM; in the assay on CAKI-1 renal it was above 100 µM; in the assay on SNB-19 CNS it was above 100 µM; in the assay on MALME-3M melanoma, 31 µM; in the assay with NCI-H226 lung, 16.7 µM; in the assay with EKVX NSCLC it was 82.1 µM. Also, the TGI in the assay on HOP-62 NSCLC was determined as 39.1 µM; in the assay with LOX IMVI melanoma, 44.6 µM.
In the case of `CN(C)C(=S)N=C(Nc1ccccc1)Nc1ccccc1`, the TGI in the assay on OVCAR-5 ovarian, in the assay with CAKI-1 renal, in the assay with SNB-19 CNS, in the assay on MALME-3M melanoma, with NCI-H226 lung and in the assay on EKVX NSCLC was above 100 µM each time. In addition, the TGI with HOP-62 NSCLC and in the assay with LOX IMVI melanoma was above 100 µM each time.
Turning to `NC1=NCCC1(c1ccccc1)c1ccccn1` (centres undefined), the TGI with OVCAR-5 ovarian, in the assay on CAKI-1 renal, in the assay with SNB-19 CNS, in the assay on MALME-3M melanoma, with NCI-H226 lung and with EKVX NSCLC was above 100 µM throughout. In addition, the TGI with HOP-62 NSCLC was above 100 µM.
On to `Cc1cc(N(CCC#N)CCC#N)ccc1N=Nc1ccc(S(N)(=O)=O)cc1`, for which the TGI in the assay on OVCAR-5 ovarian, in the assay on CAKI-1 renal, with SNB-19 CNS, in the assay with MALME-3M melanoma, in the assay on NCI-H226 lung and with EKVX NSCLC was above 100 µM in each case. For the same compound, the TGI in the assay with HOP-62 NSCLC and with LOX IMVI melanoma was above 100 µM each time.
`OCC1=CC(NC2CC(CO)C(O)C(O)C2O)C(O)C(O)C1O` (centres undefined): the TGI in the assay on SNB-19 CNS, with MALME-3M melanoma, in the assay with NCI-H226 lung, in the assay on EKVX NSCLC, in the assay on HOP-62 NSCLC and with LOX IMVI melanoma was above 100 µM in each case.
Consider `NC(=O)NO.O.O.O.O.O.O.O.O.O.O.O.[Ge].[Ge].[Ge].[Ge].[Ge].[O]=[Ge].[O]=[Ge].[O]=[Ge].[O]=[Ge].[O]=[Ge][OH]`, for which the TGI in the assay on OVCAR-5 ovarian, in the assay on CAKI-1 renal, with SNB-19 CNS, with MALME-3M melanoma, in the assay with NCI-H226 lung and with EKVX NSCLC was above 100 µM throughout. In addition, the TGI in the assay with HOP-62 NSCLC and in the assay with LOX IMVI melanoma was above 100 µM throughout.
